Values quoted from earlier work in patent US11957650B2, “Formulation and method for the prevention and/or treatment of hangover symptoms” (PHOENIX PHARMACEUTICALS AUSTRALIA PTY LTD, priority 2016, dated 2024).

System: acetaldehyde poisoning in rats
Conditions: for Effective dose in rats: footnotes * and † not given

| SMILES | Effective dose in rats | mortality in rats poisoned with acetaldehyde, thiamine added to L-cysteine (addition of thiamine to L-cysteine [13, 14]) | mortality due to acetaldehyde poisoning (L-cysteine alone [13, 14]) |
| --- | --- | --- | --- |
| O=C1O[C@H]([C@@H](O)CO)C(O)=C1O [Ascorbic acid] | 50 mg | – | – |
| Cc1ncc(C[n+]2csc(CCO)c2C)c(N)n1 [thiamine, Thiamine] | – | enhanced the ability of L-cysteine to reduce mortality | – |
| N[C@@H](CS)C(=O)O [L-cysteine] | 34 mg | – | markedly reduce the mortality |
| Cc1ncc(C[n+]2csc(CCO)c2C)c(N)n1.Cl.[Cl-] [Thiamine•HCl] | 42 mg | – | – |
